In paper PMC10650850, “Discovery, Structure–Activity Relationship and In Vitro Anticancer Activity of Small-Molecule Inhibitors of the Protein–Protein Interactions between AF9/ENL and AF4 or DOT1L” (Cancers, 2023):
Entries after “also recorded” stand apart in the source; their conditions may differ.

Key:
[1] = tested on: MV4;11; test: Antiproliferation assay (XTT), MV4;11; type: cell-based; settings: Homo sapiens, MV4-11, 168 h, 7 days incubation, read-out: Antitumor activity EC50, MV4;11;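 note: EC50 values in Micromolar not Nanomolar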
Description: (§1) The antitumor activity of selected compounds was evaluated against the proliferation of a panel of MLL-r leukemia and other cancer cells. MV4;11 and Molm-13 leukemia cells contain MLL-AF4 and MLL-AF9 fusion oncogenes, respectively. NB4 and HL60 are AML cells without MLL translocation. Hela (cervical cancer) is a solid tumor cell line. […] The anti-proliferation activity of these compounds against other AML cells (i.e., NB4 and HL60) might be due to their inhibition of SEC-mediated gene expression (e.g., Myc), as observed in our previous studies.
(§2) Proliferation inhibition assays were performed using an XTT assay kit (Biotium, Fremont, CA, USA) following our previous methods. The antiproliferation EC50 values were determined using Prism 5 and the reported results were the mean values of at least three independent experiments. The incubation time for all compounds was 7 days.

[2] = molecular target: T1, ENL-AF4 (Homo sapiens, UniProt Q03111); test: AlphaLisa assay, ENL-AF4 interaction; type: binding; settings: ENL AHD, AF4 peptide
T1 construct: ENL AHD domain (489–559); made in house; host or cells: E. coli BL21(DE3)
T1 sequence (Q03111 489-559): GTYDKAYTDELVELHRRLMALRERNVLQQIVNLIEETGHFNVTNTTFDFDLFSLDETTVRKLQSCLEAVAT
Description: (§3) Transcription cofactor AF4, which is the most frequent (~35%) fusion protein in MLL1-r leukemia, is another binding partner of AF9/ENL [35, 36, 37]. The AF9/ENL-AF4 interactions are essential for the formation of SEC, which causes aberrant gene expression in MLL-r leukemia and other AMLs. Using our previously developed AlphaLisa assays, selected compounds were tested for their ability to inhibit the PPIs between AF9 or ENL and AF4.
(§4) The cDNA for the human AF9 AHD domain (475–568) and ENL AHD domain (489–559) was synthesized (by Genscript, Piscataway, NJ, USA) and inserted into the pMAL c5X expression plasmid. The DOT1L peptide (Biotin-AHX-[…]) and AF4 peptide (Biotin-AHX-[…]) for the Alpha assay were purchased from Genscript.
(§5) Alpha assays were developed in our previous publication, using a Perkin-Elmer AlphaLisa anti-MBP kit, which contains streptavidin donor beads and anti-MBP acceptor beads. Briefly, the assay was performed using a MBP-protein (5 nM), a biotinylated peptide (40 nM), and increasing concentrations of a compound in 25 µL buffer (PBS with 0.5% BSA, pH 7.5) in 384-well plates according to the manufacturer’s protocol and measured with a Tecan SPARK microplate reader. Data were imported into Prism (version 5.0), and IC50 values from 3 independent experiments with standard deviation were obtained by using a standard dose-response curve fitting.

[3] = tested on: Hela; test: Antiproliferation assay (XTT), Hela; type: cell-based; settings: Homo sapiens, HeLa, 168 h, 7 days incubation, read-out: Antitumor activity EC50, Hela
Description: as §1, §2

[4] = tested on: NB4; test: Antiproliferation assay (XTT), NB4; type: cell-based; settings: Homo sapiens, NB-4, 168 h, 7 days incubation, read-out: Antitumor activity EC50, NB4;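 note: EC50 values in Micromolar not Nanomolar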
Description: as §1, §2

[5] = molecular target: T2, AF9-AF4 (Homo sapiens, UniProt P42568); test: AlphaLisa assay, AF9-AF4 interaction; type: binding; settings: AF9 AHD, AF4 peptide
T2 construct: human AF9 AHD domain (475–568); made in house; host or cells: E. coli BL21(DE3)
T2 sequence (P42568 475-568): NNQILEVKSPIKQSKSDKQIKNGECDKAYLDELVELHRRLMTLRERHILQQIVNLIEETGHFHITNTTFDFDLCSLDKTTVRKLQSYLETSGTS
Description: as §3, §4, §5

[6] = tested on: Molm13; test: Antiproliferation assay (XTT), Molm-13; type: cell-based; settings: Homo sapiens, MOLM-13, 168 h, 7 days incubation, read-out: Antitumor activity EC50, Molm13;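 note: EC50 values in Micromolar not Nanomolar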
Description: as §1, §2

[7] = molecular target: T3, AF9-DOT1L interaction (Homo sapiens, UniProt P42568); test: Pull-down assay of AF9 AHD with DOT1L peptide-coated beads; type: binding; settings: for remaining activity at 10 µM / remaining activity at 50 µM: Western blot, read-out: AF9 AHD % Control; for remaining activity at 10 µM: compound 10 μM; for remaining activity at 50 µM: compound 50 μM; for Effect on AF9 AHD bound to DOT1L peptide-coated beads (in words): up to 50 µM
T3 construct: human AF9 AHD domain (475–568); made in house; host or cells: E. coli BL21(DE3)
T3 sequence (P42568 475-568): T2 sequence (P42568 475-568)
Text: A pull-down assay was used to confirm that the strong inhibitors could disrupt the AF9-DOT1L interaction. Streptavidin agarose beads coated with biotinylated DOT1L peptide were used to pull-down the protein AF9 AHD in the solution, followed by thorough washing, SDS-PAGE (sodium dodecyl sulfate-polyacrylamide gel electrophoresis) and Western blotting to visualize and quantitate the protein. […] This alternative, non-optical method confirmed that compounds 24 and 50 can inhibit the PPI between AF9 and DOT1L.
The pull-down assays were conducted following our previous method. Briefly, the biotinylated DOT1L peptide (0.25 mg/mL) was incubated with streptavidin agarose beads (20 μL) in PBS containing 0.1% Triton X-100 (400 µL) for 3h to yield, after washing, DOT1L-coated beads. MBP-tagged AF9 AHD (0.2 µM, 400 µL) was pre-incubated with a compound for 1 h before adding to the beads. After 6 h incubation at 4 °C, the beads were collected, thoroughly washed, and subjected to SDS-PAGE and analyzed by Western blot using an MBP antibody (#2396, Cell signaling, Danvers, MA, USA).

[8] = molecular target: T3, AF9-DOT1L interaction; test: AlphaLisa assay, AF9-DOT1L interaction; type: binding; settings: for IC50: read-out: IC50 (μM) against the AF9-DOT1L interaction
Procedure, shortened: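 AlphaLisa proximity assay using MBP-tagged human AF9 AHD (475–568, 5 nM) on anti-MBP acceptor beads and biotinylated DOT1L peptide (40 nM) on streptavidin donor beads, in PBS with 0.5% BSA, pH 7.5. Compound titrated; IC50 from dose-response fits of 3 independent experiments.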

[9] = tested on: HoxA9, Meis1 and Myc; test: RT-qPCR of MLL target genes in Molm-13 cells; type: cell-based; settings: 1 and 5 µM, 4 days
Text: The major function of the SEC is to promote transcription elongation for its bound genes. Because of the high affinity of the PPIs between AF9/ENL and AF4, onco-MLL (e.g., MLL-AF4 or MLL-AF9/-ENL) recruits SEC to MLL target genes, facilitates their expression, and eventually causes leukemia initiation. Next, we investigated whether selected inhibitors of these PPIs can inhibit the expression of HoxA9, Meis1 and Myc, which are MLL target genes and their high expression is characteristic of MLL-r leukemia. In addition, high expression of Myc is also observed in a broad range of AMLs and other cancers and is considered a driving factor for oncogenesis. To this end, RNAs from the control and compound-treated Molm-13 cells (harboring MLL-AF9) were extracted and subjected to quantitative PCR. […] RNA extraction and RT-qPCR were performed following our previous method. 10^5 cells/mL were incubated with a compound for 4 days and the RNA was extracted using an RNeasy mini kit (#74104, Qiagen, Germantown, MD, USA). 100–1000 ng of total RNA was reverse transcribed using iScript™ Reverse Transcription Supermix (Bio-Rad, Hercules, CA, USA), using the manufacturer’s protocol. Quantitative real-time PCR was carried out using Fast SYBR Green Master Mix (Applied Biosystems, Waltham, MA, USA) according to the manufacturer’s instructions. Measurements were performed in triplicate using GAPDH as the reference gene. Real-time PCR was performed using the Biosystems Step One Plus detection system. The following sequences of primers were used: […]

[10] = tested on: panel of MLL-r leukemia and other cancer cells; test: Antiproliferation assay (XTT), panel of MLL-r leukemia and other cancer cells; type: cell-based; settings: 7 days
Description: as §1, §2

[11] = tested on: HL60; test: Antiproliferation assay (XTT), HL60; type: cell-based; settings: Homo sapiens, HL-60, 168 h, 7 days incubation, read-out: Antitumor activity EC50, HL60;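 note: EC50 values in Micromolar not Nanomolar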
Description: as §1, §2

[12] = MBP-protein 5 nM, biotinylated peptide 40 nM, 3 independent experiments with standard deviation

EC50 [1] [µM]	IC50 [2] [µM]	EC50 [3] [µM]	IC50 [5] [µM]	EC50 [6] [µM]	remaining activity at 10 µM [7] [%]	remaining activity at 50 µM [7] [%]	IC50 [8, 12] [µM]	EC50 ([10]; 168 h, MV4;11, Molm-13, NB4 and HL60 cells, read-out: Antitumor activity EC50, span over MLL-r leukemia and AML cells) [µM]	EC50 [11] [µM]	IC50 ENL-AF4 [2]	IC50 AF9-AF4 [5]	IC50 (μM) against the AF9-DOT1L interaction [8, 12]	inhibition at 5 µM ([8]; compound at 5 μM, read-out: % Inhibition at 5 μM against the AF9-DOT1L interaction) [%]	Structure (SMILES)	EC50 [4] [µM]	Effect on AF9 AHD bound to DOT1L peptide-coated beads (in words) [7]	Expression of MLL target genes HoxA9, Meis1 and Myc (in words) [9]	Inhibition of tumor cell proliferation (in words) ([10]; MV4;11, Molm-13, NB4, HL60 and Hela cells)
8.2 ± 1.2	3.4 ± 0.4	25 ± 2.5	2.5 ± 0.3	5.1 ± 0.2	27	29	2.5 ± 0.2	5.1 to 9.4	9 ± 0.9					Cl.O=C(NCC1CCNCC1)c1cc2cc(-c3ccc(N4CCCCC4)cc3)ccc2s1 [Compound 50, 5-(4-(Piperidin-1-yl)phenyl)-N-(piperidin-4-ylmethyl)-benzo[b]thiophene-2-carboxamide hydrochloride]	9.4 ± 1.2	significantly reduced the amounts of AF9 AHD; also recorded: dose-dependently reduce AF9 AHD	inhibited expression; also recorded: able to reduce the expression	
> 50	> 50	> 50	> 50	> 50	54	44			> 50	did not inhibit	did not inhibit	inactive	0	Cl.NC(=O)c1ccc(-c2ccc3cc(C(=O)NCC4CCNCC4)sc3c2)cc1 [Compound 37, 6-(4-(Carbamoyl)phenyl)-N-(piperidin-4-ylmethyl)-benzo[b]thiophene-2-carboxamide hydrochloride]	> 50	did not significantly affect the AF9 AHD levels; also recorded: did not significantly affect the binding	not and did not significantly affect the expression	None of these three compounds inhibited tumor cell proliferation
9.6 ± 1.2	2.6 ± 0.3	50	2.1 ± 0.3	4.7 ± 0.3	62	4	1.6 ± 0.2		10 ± 1.8					Cl.O=C(NCC1CCNCC1)c1cc2ccc(-c3ccc(N4CCCCC4)cc3)cc2s1 [Compound 24, 6-(4-(Piperidin-1-yl)phenyl)-N-(piperidin-4-ylmethyl)-benzo[b]thiophene-2-carboxamide hydrochloride]	5.3 ± 1.1	significantly reduced the amounts of AF9 AHD; also recorded: dose-dependently reduce AF9 AHD	inhibited expression; also recorded: able to reduce the expression	
